{"source": "paper PMC6050274", "about": "“Buparlisib is a brain penetrable pan-PI3K inhibitor” (Scientific Reports, 2018)", "key": {"[1]": {"assay": "Plasma and brain levels after oral administration in wildtype mice", "assay_type": "in vivo, FVB mice", "method": "First, we could confirm that buparlisib also achieves excellent brain penetration after oral administration, since the observed brain-plasma ratio in WT FVB mice was in line with those obtained following i.v. administration (Figs 2C, 3A).\nFigure 3 Buparlisib has excellent intracranial target engagement and oral bioavailability. (A) Buparlisib was orally administered to wildtype mice at a dose of 1 mg/kg, 2 mg/kg or 5 mg/kg. One hour after injection, blood and tissues were collected for LC-MS/MS analysis. Buparlisib plasma and brain levels increase dose-dependently, yielding similar and excellent brain-plasma ratios at all dose levels that were tested. (B) Immunoblotting of brain tissue lysates from (A). […] (C) Plasma-time curves of male and female wildtype mice following intravenous (2 mg/kg) or oral (5 mg/kg) administration. […] The oral bioavailability of buparlisib is excellent, since oral and intravenous administration yielded similar dose-adjusted AUCs (see Table 1). All data are represented as mean ± SD (n = 4).\nThe pharmacokinetics of buparlisib were analysed in WT, Abcg2^−/−, Abcb1a/b^−/− and Abcb1a/b; Abcg2^−/− FVB mice. All knockout mice strains have been developed within our institute[41]–[43]. For i.v. administration, buparlisib was dissolved in DMSO and injected at a dose of 2 mg/kg. For oral administration, buparlisib was formulated in DMSO:Cremophor EL:water (1:1:8 v/v/v) and administered at 1, 2 or 5 mg/kg as indicated. Tail vein bleeding was used to collect blood at intermediate time points, whereas at the last time point blood was drawn by cardiac puncture and various tissue were collected. Plasma was obtained from whole blood by centrifugation (5 min, 5,000 rpm, 4 °C). After weighing, tissues were homogenized using a FastPrep®-24 (MP-Biomedicals, NY) in 1% (w/v) bovine serum albumin in water. […]\nBuparlisib was measured in samples from in vitro transport assays and in vivo pharmacokinetic studies using an LC-MS/MS system comprised of an UltiMate 3000 LC Systems (Dionex, Sunnyvale, CA) and an API 4000 mass spectrometer (Sciex, Framingham, MA). […]"}, "[2]": {"details": "humans; cited from earlier work"}, "human P-gp (ABCB1/MDR1)": {"target": "T1, human P-gp (ABCB1/MDR1) (Homo sapiens, UniProt P08183)", "T1 construct": "expressed in transfected cells; host or cells: LLC-PK1 (LLC-MDR1)", "T1 sequence (P08183 whole entry)": "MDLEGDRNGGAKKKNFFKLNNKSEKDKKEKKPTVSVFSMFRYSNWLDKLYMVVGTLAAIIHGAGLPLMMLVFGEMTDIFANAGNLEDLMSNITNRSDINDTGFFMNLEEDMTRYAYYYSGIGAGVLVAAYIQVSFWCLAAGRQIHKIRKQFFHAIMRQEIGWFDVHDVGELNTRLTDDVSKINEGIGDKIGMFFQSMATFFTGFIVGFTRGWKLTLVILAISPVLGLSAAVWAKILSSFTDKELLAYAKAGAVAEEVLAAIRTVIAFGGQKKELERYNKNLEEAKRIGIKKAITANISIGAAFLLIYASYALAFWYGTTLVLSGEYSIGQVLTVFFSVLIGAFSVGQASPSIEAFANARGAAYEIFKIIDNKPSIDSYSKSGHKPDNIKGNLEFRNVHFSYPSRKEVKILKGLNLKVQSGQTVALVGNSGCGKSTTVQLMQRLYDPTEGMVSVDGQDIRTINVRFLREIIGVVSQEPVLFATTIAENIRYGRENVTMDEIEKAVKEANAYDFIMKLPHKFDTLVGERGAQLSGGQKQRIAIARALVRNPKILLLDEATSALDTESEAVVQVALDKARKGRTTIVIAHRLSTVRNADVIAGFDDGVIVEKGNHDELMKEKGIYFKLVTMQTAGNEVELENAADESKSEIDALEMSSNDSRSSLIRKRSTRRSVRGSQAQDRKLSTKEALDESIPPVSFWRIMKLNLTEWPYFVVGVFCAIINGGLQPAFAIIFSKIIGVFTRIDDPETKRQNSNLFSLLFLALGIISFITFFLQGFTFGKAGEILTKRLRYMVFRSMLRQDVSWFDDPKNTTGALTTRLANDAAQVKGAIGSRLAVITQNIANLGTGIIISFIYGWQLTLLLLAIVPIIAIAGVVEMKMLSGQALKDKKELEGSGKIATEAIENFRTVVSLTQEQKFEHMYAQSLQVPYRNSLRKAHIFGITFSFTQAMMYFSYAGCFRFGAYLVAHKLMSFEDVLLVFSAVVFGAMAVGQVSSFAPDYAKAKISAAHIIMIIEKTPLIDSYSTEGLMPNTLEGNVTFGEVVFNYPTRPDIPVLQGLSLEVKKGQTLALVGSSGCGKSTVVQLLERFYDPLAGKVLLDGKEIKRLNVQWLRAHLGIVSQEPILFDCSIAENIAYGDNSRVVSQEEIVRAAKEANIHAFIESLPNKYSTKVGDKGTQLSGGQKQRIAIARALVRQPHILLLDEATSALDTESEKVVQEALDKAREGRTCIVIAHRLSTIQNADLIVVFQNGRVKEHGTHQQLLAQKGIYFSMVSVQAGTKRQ", "assay": "Concentration equilibrium transport assay (CETA), LLC-MDR1", "assay_type": "in vitro ADME", "details": "100 nM", "description": "(§1) Figure 1 Analysis of buparlisib substrate affinity for ABC transporters using in vitro transport assays. (A) The chemical structure of buparlisib. (B) A conventional transport assay (CTA) using LLC-PK1 cells in presence of zosuquidar to block endogenous (porcine) P-gp activity. […] (C) Concentration equilibrium transport assays (CETAs) using MDCK or LLC cells that overexpress murine BCRP, (Bcrp1), human BCRP, murine P-gp (Mdr1a) or human P-gp (MDR1). […] The P-gp inhibitor zosuquidar was used in all MDCK cell lines to inhibit endogenous P-gp activity and in LLC cell lines to validate possible P-gp-mediated translocations. […]\n(§2) Conventional bidirectional transport assays (CTAs) and concentration equilibrium transport assays (CETAs) were performed as described previously. […] Transwell leakiness was determined as Carboxyl-[^14C]-inulin translocation exceeding 1.5% per hour and these wells were excluded from the analysis. […]\n(§3) As described in detail before, CETA results were analysed with the General linear model repeated measures procedure of SPSS (v22; SPSS Inc, Chicago, IL)[25]. […] The standard error of the oral bioavailability was calculated using the formula below: SEF=F(SEAUCp.o./AUCp.o.)^2+(SEAUCi.v./AUCi.v.)^2 Buparlisib concentrations in WT and transporter knockout mice in vivo were compared using one-way analysis of variance followed by post hoc Bonferroni tests. […]"}, "[3]": {"target": "T2, murine BCRP (Abcg2/Bcrp1) (Mus musculus, UniProt Q7TMS5)", "T2 construct": "expressed in transfected cells; host or cells: MDCK (MDCK-Bcrp1)", "T2 sequence (Q7TMS5 1-657)": "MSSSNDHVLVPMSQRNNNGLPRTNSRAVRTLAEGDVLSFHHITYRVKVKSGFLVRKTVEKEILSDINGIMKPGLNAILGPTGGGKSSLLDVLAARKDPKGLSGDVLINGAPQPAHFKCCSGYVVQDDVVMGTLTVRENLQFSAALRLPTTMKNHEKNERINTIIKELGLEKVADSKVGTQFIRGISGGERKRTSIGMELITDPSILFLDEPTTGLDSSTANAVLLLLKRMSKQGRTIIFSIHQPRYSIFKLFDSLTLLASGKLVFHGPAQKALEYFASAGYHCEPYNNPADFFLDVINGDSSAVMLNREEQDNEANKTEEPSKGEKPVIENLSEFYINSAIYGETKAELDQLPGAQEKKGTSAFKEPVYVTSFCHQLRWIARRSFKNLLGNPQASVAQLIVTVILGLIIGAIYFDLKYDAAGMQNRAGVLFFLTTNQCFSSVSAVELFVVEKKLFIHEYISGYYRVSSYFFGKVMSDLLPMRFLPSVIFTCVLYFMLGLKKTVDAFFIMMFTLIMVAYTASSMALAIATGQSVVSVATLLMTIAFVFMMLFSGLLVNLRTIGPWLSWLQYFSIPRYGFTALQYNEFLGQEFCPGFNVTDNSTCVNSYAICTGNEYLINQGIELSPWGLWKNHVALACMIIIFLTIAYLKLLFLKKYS", "assay": "Concentration equilibrium transport assay (CETA), MDCK-Bcrp1", "assay_type": "in vitro ADME", "details": "MDCK-Bcrp1, 100 nM", "description": "as §1, §2, §3"}}, "data": [{"compound": "Nc1cc(C(F)(F)F)c(-c2cc(N3CCOCC3)nc(N3CCOCC3)n2)cn1", "note": "[buparlisib]", "values": [{"measurement": "Kp at 1 h", "setting": "[1]; FVB, mouse, brain/plasma, other: intravenous and oral, i.v. 2 mg/kg and oral 1, 2, 5 mg/kg (Figs 2C, 3A), read-out: brain-plasma ratio", "value": "1.5 to 2"}, {"measurement": "concentration at 1 h", "setting": "[1]; FVB, mouse, plasma, 5 mg/kg oral, WT mice, 1 hour, read-out: plasma level", "value": "~1200", "unit": "ng/mL"}, {"measurement": "change of plasma and brain concentrations with dose", "setting": "[1]; oral 1, 2, 5 mg/kg, WT mice, 1 hour", "value": "dose-proportional increase"}, {"measurement": "maximum tolerated dose", "setting": "[2]", "value": 100, "unit": "mg per day"}, {"measurement": "substrate of human P-gp", "setting": "human P-gp (ABCB1/MDR1)", "value": "not a substrate"}, {"measurement": "substrate of murine BCRP", "setting": "[3]", "value": "very weak substrate"}]}]}
